Read-outs that look alike come from different tables or passages of the source.
Columns and labels:
pY641-STAT6 in PBMC = target: T1, pY641-STAT6 in PBMC (Homo sapiens, UniProt P42226); experiment: MSD-pSTAT-PBMC Assay (pSTAT6, IL-4 stimulated); type: cell-based; conditions: compound 3 hrs, then 1 ng/mL IL-4 for 10 min, Table 115
T1 construct: Cryopreserved Peripheral Blood Mononuclear Cells (PBMC) are from AllCells; host or cells: cryopreserved PBMC
T1 sequence (P42226 1-847): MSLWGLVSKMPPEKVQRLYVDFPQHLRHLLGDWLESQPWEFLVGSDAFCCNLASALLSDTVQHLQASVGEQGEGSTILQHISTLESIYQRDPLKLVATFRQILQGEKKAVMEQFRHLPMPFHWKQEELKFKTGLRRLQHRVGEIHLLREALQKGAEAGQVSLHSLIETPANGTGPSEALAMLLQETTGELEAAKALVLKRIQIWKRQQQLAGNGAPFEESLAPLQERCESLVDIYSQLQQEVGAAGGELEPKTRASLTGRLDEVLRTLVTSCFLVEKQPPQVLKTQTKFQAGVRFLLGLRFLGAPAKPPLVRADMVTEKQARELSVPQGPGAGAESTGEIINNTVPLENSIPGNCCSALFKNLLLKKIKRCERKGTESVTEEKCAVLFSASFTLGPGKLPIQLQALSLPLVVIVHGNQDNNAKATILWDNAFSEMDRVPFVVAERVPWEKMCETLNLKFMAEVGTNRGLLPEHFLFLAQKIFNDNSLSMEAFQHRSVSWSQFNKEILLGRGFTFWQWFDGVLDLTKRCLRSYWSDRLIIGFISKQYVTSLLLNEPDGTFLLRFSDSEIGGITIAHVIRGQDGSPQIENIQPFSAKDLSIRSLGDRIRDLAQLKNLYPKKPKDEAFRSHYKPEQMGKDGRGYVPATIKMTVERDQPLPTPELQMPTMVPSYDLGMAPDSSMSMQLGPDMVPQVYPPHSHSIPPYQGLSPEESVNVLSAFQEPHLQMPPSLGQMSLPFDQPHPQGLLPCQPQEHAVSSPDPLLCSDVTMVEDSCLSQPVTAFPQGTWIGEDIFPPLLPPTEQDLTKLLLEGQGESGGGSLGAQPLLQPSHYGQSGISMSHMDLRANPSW
Outline: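 Inhibition of cytokine-induced STAT phosphorylation was measured in recovered human PBMC after 3 hrs compound exposure and a 10 min IL-4 (1 ng/mL) or IL-6 (10 ng/mL) challenge. MSD detection of pY641-STAT6 or pY705-STAT3 yielded IC50 values.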

pY705-STAT3 in PBMC = target: T2, pY705-STAT3 in PBMC (Homo sapiens, UniProt P40763); experiment: MSD-pSTAT-PBMC Assay (pSTAT3, IL-6 stimulated); type: cell-based; conditions: compound 3 hrs, then 10 ng/mL IL-6 for 10 min, Table 115
T2 construct: Cryopreserved Peripheral Blood Mononuclear Cells (PBMC) are from AllCells; host or cells: cryopreserved PBMC
Outline: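 Cells are preincubated with compound for 3 hrs, then stimulated for 10 min, IL-4 at 1 ng/mL driving STAT6 phosphorylation and IL-6 at 10 ng/mL driving STAT3. Phospho-STAT in lysates is quantified by MSD immunoassay, and IC50 is fitted after subtracting unstimulated wells.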

T2 sequence (P40763 whole entry): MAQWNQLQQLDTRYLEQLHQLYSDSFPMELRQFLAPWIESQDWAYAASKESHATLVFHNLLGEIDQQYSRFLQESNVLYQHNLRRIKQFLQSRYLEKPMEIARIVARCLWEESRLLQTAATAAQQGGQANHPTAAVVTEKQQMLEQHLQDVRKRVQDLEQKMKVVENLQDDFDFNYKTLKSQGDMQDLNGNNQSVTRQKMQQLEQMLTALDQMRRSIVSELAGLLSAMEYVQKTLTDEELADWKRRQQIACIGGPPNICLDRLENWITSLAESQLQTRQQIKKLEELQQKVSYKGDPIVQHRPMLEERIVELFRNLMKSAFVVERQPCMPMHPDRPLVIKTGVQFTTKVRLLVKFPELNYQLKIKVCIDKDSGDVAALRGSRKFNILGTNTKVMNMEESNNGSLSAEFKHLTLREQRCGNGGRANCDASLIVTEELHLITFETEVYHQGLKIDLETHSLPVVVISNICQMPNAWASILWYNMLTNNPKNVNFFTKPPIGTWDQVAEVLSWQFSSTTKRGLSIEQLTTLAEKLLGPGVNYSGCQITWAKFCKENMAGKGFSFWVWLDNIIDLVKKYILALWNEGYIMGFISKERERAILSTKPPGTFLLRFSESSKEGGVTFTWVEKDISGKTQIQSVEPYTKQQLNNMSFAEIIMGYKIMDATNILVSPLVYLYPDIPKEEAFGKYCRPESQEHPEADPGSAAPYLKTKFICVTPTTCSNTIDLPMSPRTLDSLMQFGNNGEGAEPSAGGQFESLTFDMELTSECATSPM

SMILES: CCCOC(=O)[C@H](C)NP(=O)(Oc1ccccc1)C(F)c1ccc2sc(C(=O)N[C@H]3C[C@@H](C)C[C@H]4CC[C@@H](C(=O)N5CC(c6cnccc6F)C5)N4C3=O)cc2c1 (stereo partly drawn) [Compound 292, propyl ((fluoro(2-(((3S,6S,8R,9aR)-3-(3-(4-fluoropyridin-3-yl)azetidine-1-carbonyl)-8-methyl-5-oxooctahydro-1H-pyrrolo[1,2-a]azepin-6-yl)carbamoyl)benzo [b]thiophen-5-yl)methyl)(phenoxy)phosphoryl)-L-alaninate]
- IC50 (pY641-STAT6 in PBMC; STAT6, PBMC): > 3 µM
- IC50 (pY705-STAT3 in PBMC; PBMC, read-out: STAT3): < 0.1 µM

SMILES: CCCOC(=O)[C@H](C)NP(=O)(Cc1ccc2sc(C(=O)N[C@H]3CC4(CC[C@H]5CC[C@@H](C(=O)N6CC(c7cccnc7)C6)N5C3=O)CC4)cc2c1)Oc1ccccc1 (stereo partly drawn) [Compound 302, propyl (((2-(((3′S,6′S,10a′S)-5′-oxo-3′-(3-(pyridin-3-yl)azetidine-1-carbonyl)octahydro-5′H-spiro[cyclopropane-1,8′-pyrrolo[1,2-a]azocin]-6′-yl)carbamoyl)benzo [b]thiophen-5-yl)methyl)(phenoxy)phosphoryl)-L-alaninate]
- IC50 (pY641-STAT6 in PBMC; STAT6, PBMC): 1 to 3 µM
- IC50 (pY705-STAT3 in PBMC; PBMC, read-out: STAT3): < 0.1 µM

SMILES: CCCOC(=O)[C@H](C)NP(=O)(Cc1ccc2sc(C(=O)N[C@H]3CCC[C@H]4CC[C@@H](C(=O)N5CC(c6cnccc6F)C5)N4C3=O)cc2c1)Oc1ccccc1 (stereo partly drawn) [Compound 304, propyl (((2-(((3S,6S,9aS)-3-(3-(4-fluoropyridin-3-yl)azetidine-1-carbonyl)-5-oxooctahydro-1H-pyrrolo[1,2-a]azepin-6-yl)carbamoyl)benzo [b]thiophen-5-yl)methyl)(phenoxy)phosphoryl)-L-alaninate]
- IC50 (pY641-STAT6 in PBMC; STAT6, PBMC): > 3 µM
- IC50 (pY705-STAT3 in PBMC; PBMC, read-out: STAT3): < 0.1 µM

SMILES: CCCOC(=O)[C@H](C)NP(=O)(Oc1ccccc1)C(F)c1ccc2sc(C(=O)N[C@H]3CCCC[C@H]4CC[C@@H](C(=O)N5CCC(c6cccnc6)C5)N4C3=O)cc2c1 (stereo partly drawn) [Compound 320, propyl ((fluoro(2-(((3S,6S,10aS)-5-oxo-3-(3-(pyridin-3-yl)pyrrolidine-1-carbonyl)decahydropyrrolo[1,2-a]azocin-6-yl)carbamoyl)benzo [b]thiophen-5-yl)methyl)(phenoxy)phosphoryl)-L-alaninate]
- IC50 (pY641-STAT6 in PBMC; STAT6, PBMC): 0.1 to 1 µM
- IC50 (pY705-STAT3 in PBMC; PBMC, read-out: STAT3): < 0.1 µM

SMILES: CC(C)(C)C(=O)SCCOP(=O)(OCCSC(=O)C(C)(C)C)C(F)(F)c1ccc2sc(C(=O)N[C@H]3CCC[C@H]4CC[C@@H](C(=O)N5CC(c6cnccc6F)C5)N4C3=O)cc2c1 [Compound 324, S,S′-((((difluoro(2-(((3S,6S,9aS)-3-(3-(4-fluoropyridin-3-yl)azetidine-1-carbonyl)-5-oxooctahydro-1H-pyrrolo[1,2-a]azepin-6-yl)carbamoyl)benzo [b]thiophen-5-yl)methyl)phosphoryl)bis(oxy))bis(ethane-2,1-diyl)) bis(2,2-dimethyl-propanethioate)]
- IC50 (pY641-STAT6 in PBMC; PBMC, read-out: STAT6): > 3 µM
- IC50 (pY705-STAT3 in PBMC; PBMC, read-out: STAT3): < 0.1 µM

SMILES: CCCOC(=O)[C@H](C)NP(=O)(Oc1ccccc1)[C@@H](F)c1ccc2sc(C(=O)N[C@H]3CCCC[C@H]4CC[C@@H](C(=O)N5C[C@@H](c6ccccc6)[C@H](C#N)C56CC6)N4C3=O)cc2c1 (stereo partly drawn) [Compound 380, propyl (((R)-(2-(((3S,6S,10aS)-3-((6R,7S)-7-cyano-6-phenyl-4-azaspiro[2.4]heptane-4-carbonyl)-5-oxodecahydropyrrolo [1,2-a]azocin-6-yl)carbamoyl)benzo [b]thiophen-5-yl)fluoromethyl) (phenoxy)phosphoryl)-L-alaninate]
- IC50 (pY641-STAT6 in PBMC; STAT6, PBMC): < 0.1 µM
- IC50 (pY705-STAT3 in PBMC; PBMC, read-out: STAT3): > 3 µM

SMILES: CCCOC(=O)[C@H](C)NP(=O)(Oc1ccccc1)[C@@H](F)c1ccc2sc(C(=O)N[C@H]3CCCC[C@H]4CC[C@@H](C(=O)N5C[C@H](c6ccccc6)[C@@H](C#N)C56CC6)N4C3=O)cc2c1 (stereo partly drawn) [Compound 381, propyl (((R)-(2-(((3S,6S,10aS)-3-((6S,7R)-7-cyano-6-phenyl-4-azaspiro[2.4]heptane-4-carbonyl)-5-oxodecahydropyrrolo [1,2-a]azocin-6-yl)carbamoyl)benzo [b]thiophen-5-yl)fluoromethyl) (phenoxy)phosphoryl)-L-alaninate]
- IC50 (pY641-STAT6 in PBMC; STAT6, PBMC): < 0.1 µM
- IC50 (pY705-STAT3 in PBMC; PBMC, read-out: STAT3): > 3 µM

SMILES: CCCOC(=O)[C@H](C)NP(=O)(Oc1ccccc1)[C@@H](F)c1ccc2sc(C(=O)N[C@H]3CCC[C@H]4CC[C@@H](C(=O)N5C[C@@H](c6ccccc6)[C@H](C#N)C56CC6)N4C3=O)cc2c1 (stereo partly drawn) [Compound 382, propyl (((R)-(2-(((3S,6S,9aS)-3-((6R,7S)-7-cyano-6-phenyl-4-azaspiro[2.4]heptane-4-carbonyl)-5-oxooctahydro-1H-pyrrolo[1,2-a]azepin-6-yl)carbamoyl)benzo [b]thiophen-5-yl)fluoromethyl) (phenoxy)phosphoryl)-L-alaninate]
- IC50 (pY641-STAT6 in PBMC; STAT6, PBMC): < 0.1 µM
- IC50 (pY705-STAT3 in PBMC; STAT3, PBMC): > 3 µM

SMILES: CCCOC(=O)[C@H](C)NP(=O)(Oc1ccccc1)[C@H](F)c1ccc2sc(C(=O)N[C@H]3CCC[C@H]4CC[C@@H](C(=O)N5C[C@H](c6ccccc6)[C@@H](C#N)C56CC6)N4C3=O)cc2c1 (stereo partly drawn) [Compound 388, propyl (((S)-(2-(((3S,6S,9aS)-3-((6S,7R)-7-cyano-6-phenyl-4-azaspiro[2.4]heptane-4-carbonyl)-5-oxooctahydro-1H-pyrrolo[1,2-a]azepin-6-yl)carbamoyl)benzo [b]thiophen-5-yl)fluoromethyl) (phenoxy)phosphoryl)-L-alaninate]
- IC50 (pY641-STAT6 in PBMC; STAT6, PBMC): < 0.1 µM
- IC50 (pY705-STAT3 in PBMC; STAT3, PBMC): > 3 µM

SMILES: CCOC(=O)[C@H](C)NP(=O)(Cc1ccc2ccc(C(=O)N[C@H]3CCCC[C@H]4CC[C@@H](C(=O)N5CC(c6ccccc6)CC56CC6)N4C3=O)cc2c1)Oc1ccccc1 (stereo partly drawn) [Compound 396, ethyl (((7-(((3S,6S,10aS)-5-oxo-3-(6-phenyl-4-azaspiro[2.4]heptane-4-carbonyl)decahydropyrrolo[1,2-a]azocin-6-yl)carbamoyl)naphthalen-2-yl)methyl)(phenoxy)phosphoryl)-L-alaninate]
- IC50 (pY641-STAT6 in PBMC; STAT6, PBMC): 1 to 3 µM
- IC50 (pY705-STAT3 in PBMC; PBMC, read-out: STAT3): > 3 µM

SMILES: C[C@H](NP(=O)(Cc1ccc2ccc(C(=O)N[C@H]3CCCC[C@H]4CC[C@@H](C(=O)N5CC(c6ccccc6)CC56CC6)N4C3=O)cc2c1)Oc1ccccc1)C(=O)OCc1ccccc1 (stereo partly drawn) [Compound 397, benzyl (((7-(((3S,6S,10aS)-5-oxo-3-(6-phenyl-4-azaspiro[2.4]heptane-4-carbonyl)decahydropyrrolo[1,2-a]azocin-6-yl)carbamoyl)naphthalen-2-yl)methyl)(phenoxy)phosphoryl)-L-alaninate]
- IC50 (pY641-STAT6 in PBMC; STAT6, PBMC): > 3 µM
- IC50 (pY705-STAT3 in PBMC; PBMC, read-out: STAT3): > 3 µM

SMILES: CCCOC(=O)[C@H](C)NP(=O)(Cc1ccc2ccc(C(=O)N[C@H]3CCCC[C@H]4CC[C@@H](C(=O)N5C[C@H](c6cc[nH]c(=O)c6)CC56CC6)N4C3=O)cc2c1)Oc1ccccc1 (stereo partly drawn) [Compound 402, propyl (((7-(((3S,6S,10aS)-5-oxo-3-((S)-6-(2-oxo-1,2-dihydropyridin-4-yl)-4-azaspiro[2.4]heptane-4-carbonyl)decahydropyrrolo[1,2-a]azocin-6-yl)carbamoyl)naphthalen-2-yl)methyl)(phenoxy)phosphoryl)-L-alaninate]
- IC50 (pY641-STAT6 in PBMC; STAT6, PBMC): 1 to 3 µM
- IC50 (pY705-STAT3 in PBMC; PBMC, read-out: STAT3): > 3 µM

SMILES: CCCOC(=O)[C@H](C)NP(=O)(Oc1ccccc1)C(F)(F)c1ccc2ccc(C(=O)N[C@H]3CCCC[C@H]4CC[C@@H](C(=O)N5CC(c6ccccc6)CC56CC6)N4C3=O)cc2c1 (stereo partly drawn) [Compound 403, propyl ((difluoro(7-(((3S,6S,10aS)-5-oxo-3-(6-phenyl-4-azaspiro[2.4]heptane-4-carbonyl)decahydropyrrolo[1,2-a]azocin-6-yl)carbamoyl)naphthalen-2-yl)methyl)(phenoxy)phosphoryl)-L-alaninate]
- IC50 (pY641-STAT6 in PBMC; STAT6, PBMC): 0.1 to 1 µM
- IC50 (pY705-STAT3 in PBMC; PBMC, read-out: STAT3): > 3 µM

SMILES: CCC(CC)COC(=O)[C@H](C)NP(=O)(Cc1ccc2ccc(C(=O)N[C@H]3CCCC[C@H]4CC[C@@H](C(=O)N5CC(c6ccccc6)CC56CC6)N4C3=O)cc2c1)Oc1ccccc1 (stereo partly drawn) [Compound 404, 2-ethylbutyl (((7-(((3S,6S,10aS)-5-oxo-3-(6-phenyl-4-azaspiro[2.4]heptane-4-carbonyl)decahydropyrrolo[1,2-a]azocin-6-yl)carbamoyl)naphthalen-2-yl)methyl)(phenoxy)phosphoryl)-L-alaninate]
- IC50 (pY641-STAT6 in PBMC; STAT6, PBMC): 1 to 3 µM
- IC50 (pY705-STAT3 in PBMC; PBMC, read-out: STAT3): > 3 µM
